Like-named read-outs stand apart in the source and are kept apart here.
Legend:
[1] = target: T1, PfCRT^Ecu1110 (Plasmodium falciparum, UniProt Q9N623, A220S/I356L/K76T/N326D); test: [3H]CQ uptake into Xenopus oocytes, cis-inhibition by unlabelled solute; assay type: cell-based; conditions: read-out: [3H]CQ transport (% PfCRTEcu1110 control), cis-inhibition, PfCRTEcu1110; SEM
Procedure, shortened: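 Assay buffer ND96 (10 mM MES, 10 mM Tris-base) held at pH 5.5 to mimic vacuole lumen; uptake measured inward from this acidic medium over 1.5 h at 27.5 °C.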

[2] = test system: non-expressing oocytes; assay type: cell-based, Xenopus laevis; conditions: total [3H]CQ transport; for Uptake of [3H]CQ (% non-expressing oocyte control), trans-stimulation: non-expressing oocytes, normalised to the oocyte type control; for Uptake of [3H]CQ (% PfCRTDd2 control), trans-stimulation, non-expressing oocytes: mean ± SEM, SEM
Procedure, shortened: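 Oocytes (ten per treatment, ≥4 independent frogs/days) were preloaded by injecting VF-6 in 25 nL ND96 at pH 5.0, 5.5, 6.0 or 7.0, or Na^+-free choline buffer, then uptake run 1.5 h, 27.5 °C, ND96 pH 5.5 by default. Internal concentrations assumed ~400 nL oocyte volume.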

[3] = target: PfCRT^3D7 (Plasmodium falciparum, UniProt Q8IBZ9); test: cell-based; assay type: cell-based
Procedure, shortened: (§1)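 Transport measured in Xenopus oocytes expressing the transporters, 1.5 h at 27.5 °C in ND96 pH 5.5 unless noted. For trans-stimulation, VF-6 injected in 25 nL ND96 at pH 5.0–7.0 or Na^+-free (choline) buffer; intracellular levels based on ~400 nL oocyte volume. Ten oocytes per treatment, ≥4 experiments.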

[4] = target: PfCRT^Dd2 (Plasmodium falciparum, UniProt Q9N623, A220S/I356T/K76T/M74I/N326S/N75E/Q271E/R371I); test: cell-based; assay type: cell-based; conditions: […]; for activity at 45000 µM: [test solute]i = 45 mM (30 mM for some solutes due to solubility)
Procedure, shortened: as §1

[5] = target: T1, PfCRT^Ecu1110; test: cell-based; assay type: cell-based; conditions: […]
Procedure, shortened: as §1

[6] = target: T2, PfNT1 (Plasmodium falciparum, UniProt Q8IDM6); test: cell-based; assay type: cell-based; conditions: for activity at 5000 µM: total [3H]CQ transport
T2 construct: expressed in transfected cells; host or cells: Xenopus laevis oocytes (stage V-VI), cRNA-injected
Procedure, shortened: as §1

[7] = test system: PfCRT; test: Test of solutes as potential co-substrates for influx of VF-6 via PfCRT into the oocyte; assay type: cell-based, Plasmodium falciparum; set-up: key: X: Compounds that have been tested as potential co-substrates but are not required for influx of VF-6 via PfCRT into the oocyte; conditions: X = tested
[8] = test system: PfCRT; test: Potential co-substrates tested for influx of VF-6 via PfCRT into the oocyte; assay type: cell-based, Plasmodium falciparum; set-up: key: X: Compounds that have been tested as potential co-substrates but are not required for influx of VF-6 via PfCRT into the oocyte

Sequence of PfCRT^3D7 (Q8IBZ9 59-398): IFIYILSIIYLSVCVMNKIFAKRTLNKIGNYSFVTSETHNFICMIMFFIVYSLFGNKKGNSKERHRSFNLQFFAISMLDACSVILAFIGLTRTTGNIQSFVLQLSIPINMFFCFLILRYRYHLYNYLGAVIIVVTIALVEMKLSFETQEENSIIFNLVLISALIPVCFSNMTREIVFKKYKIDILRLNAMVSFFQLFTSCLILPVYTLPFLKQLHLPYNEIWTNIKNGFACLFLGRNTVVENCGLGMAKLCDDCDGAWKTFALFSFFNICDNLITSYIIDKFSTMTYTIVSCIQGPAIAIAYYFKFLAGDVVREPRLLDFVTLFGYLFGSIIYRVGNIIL
T2 sequence (Q8IDM6 whole entry): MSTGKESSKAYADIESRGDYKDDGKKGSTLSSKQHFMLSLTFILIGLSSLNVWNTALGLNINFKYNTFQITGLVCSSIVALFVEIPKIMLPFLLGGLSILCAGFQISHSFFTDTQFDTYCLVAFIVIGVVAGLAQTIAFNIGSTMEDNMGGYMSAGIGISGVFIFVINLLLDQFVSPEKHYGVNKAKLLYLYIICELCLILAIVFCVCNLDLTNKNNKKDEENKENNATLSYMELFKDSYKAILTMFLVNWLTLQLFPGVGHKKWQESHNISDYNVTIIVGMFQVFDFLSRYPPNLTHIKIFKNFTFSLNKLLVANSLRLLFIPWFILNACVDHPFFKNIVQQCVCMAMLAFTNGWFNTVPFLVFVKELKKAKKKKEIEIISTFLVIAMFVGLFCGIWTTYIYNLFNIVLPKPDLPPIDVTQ
Sequence of PfCRT^Dd2 (Q9N623 whole entry A220S/I356T/K76T/M74I/N326S/N75E/Q271E/R371I): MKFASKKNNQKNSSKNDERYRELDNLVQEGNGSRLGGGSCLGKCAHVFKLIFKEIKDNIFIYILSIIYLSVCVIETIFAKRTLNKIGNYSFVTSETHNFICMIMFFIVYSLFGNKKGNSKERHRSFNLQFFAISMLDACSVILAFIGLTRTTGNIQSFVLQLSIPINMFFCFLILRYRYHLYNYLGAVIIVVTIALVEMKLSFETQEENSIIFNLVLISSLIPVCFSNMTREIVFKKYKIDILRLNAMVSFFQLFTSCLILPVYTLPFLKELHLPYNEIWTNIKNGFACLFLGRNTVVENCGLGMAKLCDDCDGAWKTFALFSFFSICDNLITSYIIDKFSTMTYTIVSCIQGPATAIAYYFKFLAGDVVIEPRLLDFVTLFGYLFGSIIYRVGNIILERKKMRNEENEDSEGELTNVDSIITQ
T1 sequence (Q9N623 whole entry A220S/I356L/K76T/N326D): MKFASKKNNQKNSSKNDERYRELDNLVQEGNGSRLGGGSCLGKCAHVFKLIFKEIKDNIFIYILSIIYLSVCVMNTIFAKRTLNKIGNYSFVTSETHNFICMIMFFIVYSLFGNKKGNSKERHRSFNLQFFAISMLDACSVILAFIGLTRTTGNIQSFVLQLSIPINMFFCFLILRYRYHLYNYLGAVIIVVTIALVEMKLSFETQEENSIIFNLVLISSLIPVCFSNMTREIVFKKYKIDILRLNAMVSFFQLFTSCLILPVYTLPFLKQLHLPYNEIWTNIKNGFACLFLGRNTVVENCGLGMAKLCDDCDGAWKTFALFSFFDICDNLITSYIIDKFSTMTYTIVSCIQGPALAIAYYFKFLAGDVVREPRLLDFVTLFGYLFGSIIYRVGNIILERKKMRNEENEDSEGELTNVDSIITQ

## CC[C@H](C)[C@H](N)C(=O)O [L-isoleucine]
[1]
  inhibition at 2000 µM: 30 ± 0.5%
[2]; [test solute]i = 5 mM
  Uptake of [3H]CQ (% non-expressing oocyte control), trans-stimulation: 97 ± 1.3 % non-expressing oocyte control
[2]; [test solute]i = 45 mM (30 mM for some solutes due to solubility)
  Uptake of [3H]CQ (% non-expressing oocyte control), trans-stimulation: 100 ± 2.7 % non-expressing oocyte control
[2]; [test solute]i = 5 mM (intracellular)
  Uptake of [3H]CQ (% PfCRTDd2 control), trans-stimulation, non-expressing oocytes: 3.2 ± 0.06 % PfCRTDd2 control
[2]; [test solute]i = 45 mM (intracellular; 30 mM for some solutes due to solubility)
  Uptake of [3H]CQ (% PfCRTDd2 control), trans-stimulation, non-expressing oocytes: 2.5 ± 0.05 % PfCRTDd2 control
[3]; PfCRT3D7 oocytes, [test solute]i = 5 mM, total [3H]CQ transport, normalised to the oocyte type control, read-out: Uptake of [3H]CQ (% PfCRT3D7 control), trans-stimulation
  activity at 5000 µM: 100 ± 3.6%
[3]; SEM
  [3H]CQ transport (% PfCRT3D7 control), trans-stimulation, PfCRT3D7: 0.3 ± 0.02 % PfCRT3D7 control
[3]; [test solute]i = 5 mM (intracellular), PfCRT3D7 oocytes, normalised to oocyte type control, read-out: PfCRT-mediated [3H]CQ transport, trans-stimulation (% PfCRT3D7 control)
  activity at 5000 µM: 98 ± 4.1%
[3]; SEM, read-out: Uptake of [3H]CQ (% PfCRTDd2 control), trans-stimulation, PfCRT3D7
  activity at 45000 µM: 3.3 ± 0.01%
[3]; read-out: PfCRT-mediated [3H]CQ transport, trans-stimulation (% PfCRT3D7 control)
  activity at 45000 µM: 96 ± 3.5%
[3]; read-out: Uptake of [3H]CQ (% PfCRT3D7 control), trans-stimulation
  activity at 45000 µM: 98 ± 4.3%
[3]; total [3H]CQ transport, [test solute]i = 5 mM (intracellular), mean ± SEM, SEM, read-out: Uptake of [3H]CQ (% PfCRTDd2 control), trans-stimulation, PfCRT3D7
  activity at 5000 µM: 3.3 ± 0.02%
[4]; pH 5.5, read-out: PfCRT-mediated [3H]CQ transport, trans-stimulation (% PfCRTDd2 control), [test solute]i = 5 mM (intracellular), PfCRTDd2 oocytes, normalised to oocyte type control
  activity at 5000 µM: 94 ± 5.1%
[4]; pH 5.5, read-out: Uptake of [3H]CQ (% PfCRTDd2 control), trans-stimulation, PfCRTDd2, total [3H]CQ transport, [test solute]i = 5 mM (intracellular), mean ± SEM, SEM
  activity at 5000 µM: 96 ± 4.4%
[4]; pH 5.5, read-out: Uptake of [3H]CQ (% PfCRTDd2 control), trans-stimulation, PfCRTDd2 oocytes, [test solute]i = 5 mM, total [3H]CQ transport, normalised to the oocyte type control
  activity at 5000 µM: 96 ± 4.4%
[4]; pH 5.5, read-out: Uptake of [3H]CQ (% PfCRTDd2 control), trans-stimulation, PfCRTDd2 oocytes, total [3H]CQ transport, normalised to the oocyte type control
  activity at 45000 µM: 100 ± 2.2%
[4]; pH 5.5, read-out: [3H]CQ transport (% PfCRTDd2 control), trans-stimulation, PfCRTDd2, trans-stimulation, [test solute]i = 5 mM (injected), PfCRT-mediated component (background subtracted), mean ± SEM, SEM
  activity at 5000 µM: 94 ± 5.1%
[4]; pH 5.5, read-out: [3H]CQ transport (% PfCRTDd2 control), trans-stimulation, PfCRTDd2, trans-stimulation, PfCRT-mediated component (background subtracted), mean ± SEM, SEM
  activity at 45000 µM: 98 ± 3.6%
[5]; pH 5.5, read-out: PfCRT-mediated [3H]CQ transport, trans-stimulation (% PfCRTEcu1110 control), [test solute]i = 5 mM (intracellular), PfCRTEcu1110 oocytes, normalised to oocyte type control
  activity at 5000 µM: 97 ± 2.1%
[5]; pH 5.5, read-out: Uptake of [3H]CQ (% PfCRTEcu1110 control), trans-stimulation, PfCRTEcu1110 oocytes, [test solute]i = 5 mM, total [3H]CQ transport, normalised to the oocyte type control
  activity at 5000 µM: 99 ± 3.5%
[5]; pH 5.5, read-out: Uptake of [3H]CQ (% PfCRTEcu1110 control), trans-stimulation, PfCRTEcu1110 oocytes, [test solute]i = 45 mM (30 mM for some solutes due to solubility), total [3H]CQ transport, normalised to the oocyte type control
  activity at 45000 µM: 99 ± 3.2%
[5]; read-out: Uptake of [3H]CQ (% PfCRTDd2 control), trans-stimulation, PfCRTEcu1110, total [3H]CQ transport, [test solute]i = 5 mM (intracellular), mean ± SEM, SEM
  activity at 5000 µM: 35 ± 1.5%
[5]; read-out: Uptake of [3H]CQ (% PfCRTDd2 control), trans-stimulation, PfCRTEcu1110, total [3H]CQ transport, [test solute]i = 45 mM (intracellular; 30 mM for some solutes due to solubility), mean ± SEM, SEM
  activity at 45000 µM: 35 ± 1.1%
[6]; PfNT1 oocytes, [test solute]i = 5 mM, normalised to the oocyte type control, read-out: Uptake of [3H]CQ (% PfNT1 control), trans-stimulation
  activity at 5000 µM: 98 ± 2.2%
[6]; SEM, read-out: Uptake of [3H]CQ (% PfCRTDd2 control), trans-stimulation, PfNT1
  activity at 45000 µM: 2.2 ± 0.03%
[6]; read-out: Uptake of [3H]CQ (% PfNT1 control), trans-stimulation
  activity at 45000 µM: 100 ± 2.5%
[6]; [test solute]i = 5 mM (intracellular), mean ± SEM, SEM, read-out: Uptake of [3H]CQ (% PfCRTDd2 control), trans-stimulation, PfNT1
  activity at 5000 µM: 3.1 ± 0.02%
[7]
  Tested as potential co-substrate but not required for influx of VF-6 via PfCRT into the oocyte: X
[8]
  Tested as potential co-substrate but not required for influx of VF-6 via PfCRT into the oocyte: X
